Assay results reported in BindingDB's records for doi:10.1021/jm000022w (Cor Therapeutics, 2000).
Starred links: 1 amine or outer side, 2 acyl side, 3 side chain; linkers in the order of their positions; H or OH if unused. Positions of bridges follow the written chain, without caps; N, C: chain ends. Non-standard residues stand in square brackets, D forms with d. Residues, ends and D or L forms follow the SMILES beside them. ξ: configuration not given here. Cys(O)(CH2CO) = O=C([C@H](C[S+]([O-])CC(=O)[*:3])N[*:1])[*:2]; NMeR = CN[C@@H](CCCNC(=N)N)C(=O)O; hArg = N=C(N)NCCCC[C@H](N)C(=O)O; 3Amb = NCc1cccc(C(=O)O)c1; ξR = N=C(N)NCCCC(N)C(=O)O; dAbu = CC[C@@H](N)C(=O)O; Mpa = O=C(O)CCS

Assay: Inhibition of human platelet aggregation

SMILES	IC50 [µM]
CCOC(=O)CN1CCN(C[C@@H]2CN(c3ccc(C(N)=NC(=O)OC)cc3)C(=O)O2)CC1 [Gantofiban]	0.008
CCCCOC(=O)N[C@@H](CNC(=O)C[C@H]1CC(c2ccc(C(=N)N)cc2)=NO1)C(=O)OC [2-Butoxycarbonylamino-3-{2-[3-(4-carbamimidoyl-phenyl)-4,5-dihydro-isoxazol-5-yl]-acetylamino}-propionic acid methyl ester(DMP 754(roxifiban))]	0.06

Assay: Inhibition of platelet aggregation

SMILES	IC50 [µM]
CC(=O)NC(CCCNC(=N)N)C(=O)NCC(=O)N[C@@H](CC(=O)O)C(=O)N[C@H](C(N)=O)C(C)C (stereo partly specified) [3-[2-(2-Acetylamino-5-guanidino-pentanoylamino)-acetylamino]-N-(1-carbamoyl-2-methyl-propyl)-succinamic acid] (Ac-[ξR]GDV-NH2)	32
COc1ccc(C[C@H](NC(=O)[C@H](CC(=O)O)NC(=O)CNC(=O)[C@@H](N)CCCNC(=N)N)C(N)=O)cc1 [SC-46749] (H-RGDY(Me)-NH2)	32

Assay: Inhibition of human platelet aggregation collected with sodium citrate as anticoagulant

SMILES	IC50 [µM]
N=C(N)NCCCC[C@@H]1NC(=O)CCSSC[C@@H](C(N)=O)NC(=O)[C@@H]2CCCN2C(=O)[C@H](Cc2c[nH]c3ccccc23)NC(=O)[C@H](CC(=O)O)NC(=O)CNC1=O ([Mpa][hArg]GDWPC-NH2; disulfide 1-7)	0.14

Assay: Inhibition of human gel filtered platelet aggregation induced by ADP

SMILES	IC50 [µM]
C[C@@]1(c2ccc(C(=N)N)cc2)NC(=O)N(CC(=O)NC(CC(=O)O)c2ccccc2)C1=O (stereo partly specified) [3-{2-[4-(4-Carbamimidoyl-phenyl)-4-methyl-2,5-dioxo-imidazolidin-1-yl]-acetylamino}-3-phenyl-propionic acid(S1197)]	0.02

Assay: Inhibition of platelet aggregation
Remark: another data set of the same source

SMILES	IC50 [µM]
CN(CC(=O)c1ccc(OCC(=O)O)c(OCC(=O)O)c1)C(=O)c1ccc(C(=N)N)cc1 [(4-{2-[(4-Carbamimidoyl-benzoyl)-methyl-amino]-acetyl}-2-carboxymethoxy-phenoxy)-acetic acid]	0.07
N=C(N)NCCC[C@@H]1NC(=O)[C@@H](Cc2ccc(O)cc2)NC(=O)C[S+]([O-])C[C@@H](C(=O)O)NC(=O)[C@H](CC(=O)O)NC(=O)CNC1=O (stereo partly specified) [6-Carboxymethyl-12-(3-guanidino-propyl)-15-(4-hydroxy-benzyl)-1,5,8,11,14,17-hexaoxo-1lambda*4*-thia-4,7,10,13,16-pentaaza-cyclooctadecane-3-carboxylic acid (G4120)] ([dY]RGD[Cys(O)(CH2CO)]-OH; lactam N-5)	0.15
CC(C)[C@H](NC(=O)[C@H](CC(=O)O)NC(=O)CCNC(=O)c1ccc(C(=N)N)cc1)C(=O)O [2-{2-[3-(4-Carbamimidoyl-benzoylamino)-propionylamino]-3-carboxy-propionylamino}-3-methyl-butyric acid (Ro 43-5054)]	0.03
[H]/N=C(/N)c1ccc(C(=O)N[C@@H](Cc2ccc(O)cc2)C(=O)N2CCC(OCC(=O)O)CC2)cc1	0.03
CC(C)[C@H](NC(=O)[C@H](CC(=O)O)NC(=O)CNC(=O)Cc1ccc(C(=N)N)cc1)C(=O)O	0.3
N=C(N)c1ccc(C(=O)Nc2cccc(C(=O)NCCC(=O)O)c2)cc1	0.2

Assay: Inhibition of human platelet aggregation
Remark: another data set of the same source

SMILES	IC50 [µM]
CC(C)CC(=O)N[C@@H](CCCCNC(=O)c1ccc(C(=N)N)cc1)CC(=O)O [7-(4-Carbamimidoyl-benzoylamino)-3-(3-methyl-butyrylamino)-heptanoic acid (GPI 562)]	0.015

Assay: Inhibition of ADP-induced platelet aggregation in human platelet rich plasma

SMILES	IC50 [µM]
CN(C(=O)c1ccc2c(c1)NC(CC(=O)O)C(=O)N(CCc1ccccc1)C2)c1ccc(C(=N)N)cc1 (stereo unspecified) [{8-[(4-Carbamimidoyl-phenyl)-methyl-carbamoyl]-3-oxo-4-phenethyl-2,3,4,5-tetrahydro-1H-benzo[e][1,4]diazepin-2-yl}-acetic acid(SB-208651)]	0.065
CN(C(=O)c1ccc2c(c1)CN(CCc1ccccc1)C(=O)C(CC(=O)O)N2)c1ccc(C(=N)N)cc1 (stereo unspecified) [{7-[(4-Carbamimidoyl-phenyl)-methyl-carbamoyl]-3-oxo-4-phenethyl-2,3,4,5-tetrahydro-1H-benzo[e][1,4]diazepin-2-yl}-acetic acid]	0.16

Assay: Inhibition of […] and platelet aggregation in human platelet rich plasma

SMILES	IC50 [µM]
N=C(N)c1ccc(N2CCN(c3ccc(OCC(=O)O)cc3)CC2)cc1 [{4-[4-(4-Carbamimidoyl-phenyl)-piperazin-1-yl]-phenoxy}-acetic acid]	0.02
[H]/N=C(/N)c1ccc(N2CCN(C3CCN(CC(=O)O)CC3)CC2)cc1 [{4-[4-(4-Carbamimidoyl-phenyl)-piperazin-1-yl]-piperidin-1-yl}-acetic acid (GR 144053)]	0.059
C[C@@H](COc1ccc(N2CCN(c3ccncc3)CC2)cc1)CC(=O)O [3-Methyl-4-[4-(4-pyridin-4-yl-piperazin-1-yl)-phenoxy]-butyric acid (ZD 2486)]	0.05

Assay: Inhibition of platelet aggregation
Remark: another data set of the same source

SMILES	IC50 [µM]
Cc1c(C(=O)NCCC(=O)O)s/c(=N\C(=O)c2ccc(C(=N)N3CCC4(CC3)OCCO4)cc2)n1C [3-[(2-{4-[(1,4-Dioxa-8-aza-spiro[4.5]dec-8-yl)-imino-methyl]-benzoylimino}-3,4-dimethyl-2,3-dihydro-thiazole-5-carbonyl)-amino]-propionic acid (PSA0613)]	0.022
CCOC(=O)CCN(c1ncc(-c2ccc(C(N)=NC(=O)OCC)cc2)s1)C1CCN(CC(=O)OCC)CC1 [3-[{5-[4-(Ethoxycarbonylamino-imino-methyl)-phenyl]-thiazol-2-yl}-(1-ethoxycarbonylmethyl-piperidin-4-yl)-amino]-propionic acid ethyl ester (SR121787)]	> 0.09

Assay: Inhibition canine platelet aggregation in platelet rich plasma (PRP)

SMILES	IC50 [µM]
N=C(N)c1ccc(CCCCC(=O)N[C@@H](CC(=O)O)C(=O)N[C@@H](Cc2ccccc2)C(=O)O)cc1 [SC-52012]	0.072

Assay: Inhibition of human platelet aggregation
Remark: another data set of the same source

SMILES	IC50 [µM]
CC[C@H]1NC(=O)c2cccc(c2)CNC(=O)[C@H](CC(=O)O)NC(=O)CNC(=O)[C@H](CCCN=C(N)N)N(C)C1=O [DMP-728] (cyclo([NMeR]GD[3Amb][dAbu]))	0.046

Assay: In vitro inhibition of gel filtered platelet aggregation induced by ADP.

IC50 [µM]	SMILES
0.035	N=C(c1ccc(C(=O)Nc2ccc3c(c2)C[C@@H](CC(=O)O)CO3)cc1)N1CCOCC1 [{(S)-6-[4-(Imino-morpholin-4-yl-methyl)-benzoylamino]-chroman-3-yl}-acetic acid]
0.021	Cc1noc(C)c1S(=O)(=O)N[C@@H](CCC(=O)N1CCC2(CC1)CCN(c1ccncc1)CC2)C(=O)O [2-(3,5-Dimethyl-isoxazole-4-sulfonylamino)-5-oxo-5-(9-pyridin-4-yl-3,9-diaza-spiro[5.5]undec-3-yl)-pentanoic acid]
0.012	C#C[C@H](CC(=O)O)NC(=O)CN1CCc2ccc(N3CCNCC3)cc2C1=O [L-767679]
0.06	[H]/N=C(/N)c1ccc(C2=NO[C@@H](CC(=O)NC[C@H](NC(=O)OCCCC)C(=O)O)C2)cc1
0.008	O=C(NC[C@H](NS(=O)(=O)c1ccccc1)C(=O)O)c1cc2c(s1)CCN(CCC1CCNCC1)C2=O [(S)-2-Benzenesulfonylamino-3-{[4-oxo-5-(2-piperidin-4-yl-ethyl)-4,5,6,7-tetrahydro-thieno[3,2-c]pyridine-2-carbonyl]-amino}-propionic acid]
0.037	CCCCS(=O)(=O)NC(CC#Cc1ccc2[nH]c(=O)n(CCC3CCNCC3)c(=O)c2c1)C(=O)O (stereo unspecified) [2-(Butane-1-sulfonylamino)-5-[2,4-dioxo-3-(2-piperidin-4-yl-ethyl)-1,2,3,4-tetrahydro-quinazolin-6-yl]-pent-4-ynoic acid]
0.013	O=C(NC[C@H](NS(=O)(=O)c1ccccc1)C(=O)O)c1cc2cc(OCC3CCNCC3)ccc2[nH]1 [2-Benzenesulfonylamino-3-{[5-(piperidin-4-ylmethoxy)-1H-indole-2-carbonyl]-amino}-propionic acid(L-756568)]
0.059	Cc1ccc(S(=O)(=O)N[C@@H](CCC(=O)N2CCC3(CC2)C(=O)N(c2ccc(C(=N)N)cc2)C(=O)N3C)C(=O)O)cc1 [5-[3-(4-Carbamimidoyl-phenyl)-1-methyl-2,4-dioxo-1,3,8-triaza-spiro[4.5]dec-8-yl]-5-oxo-2-(toluene-4-sulfonylamino)-pentanoic acid]
0.01	Cc1ccc(S(=O)(=O)N[C@@H](CNC(=O)c2ccc3oc(-c4ccc(C(=N)N)cc4)nc3c2)C(=O)O)cc1 [(S)-3-{[2-(4-Carbamimidoyl-phenyl)-benzooxazole-5-carbonyl]-amino}-2-(toluene-4-sulfonylamino)-propionic acid]
0.009	CCCCS(=O)(=O)N[C@@H](CNC(=O)c1cc2n(n1)CCN(CCC1CCNCC1)C2=O)C(=O)O [(S)-2-(Butane-1-sulfonylamino)-3-{[4-oxo-5-(2-piperidin-4-yl-ethyl)-4,5,6,7-tetrahydro-pyrazolo[1,5-a]pyrazine-2-carbonyl]-amino}-propionic acid]
0.044	Cc1noc(C)c1S(=O)(=O)N[C@@H](CNC(=O)C1CCC2(CC1)CCN(c1ccncc1)CC2)C(=O)O [2-(3,5-Dimethyl-isoxazole-4-sulfonylamino)-3-[(3-pyridin-4-yl-3-aza-spiro[5.5]undecane-9-carbonyl)-amino]-propionic acid]
0.043	CCCCS(=O)(=O)NC(CC#Cc1ccc2nc(C)n(CCC3CCNCC3)c(=O)c2c1)C(=O)O (stereo unspecified) [2-(Butane-1-sulfonylamino)-5-[2-methyl-4-oxo-3-(2-piperidin-4-yl-ethyl)-3,4-dihydro-quinazolin-6-yl]-pent-4-ynoic acid]

The remaining lines, values behind:

SMILES	IC50 [µM]
N=C(N)c1ccc(C(=O)Nc2ccc3c(c2)CCC(CC(=O)O)C3=O)cc1 (stereo unspecified) [[6-(4-Carbamimidoyl-benzoylamino)-1-oxo-1,2,3,4-tetrahydro-naphthalen-2-yl]-acetic acid]	0.06
N=C(N)c1ccc(C(=O)Nc2ccc3c(c2)CCC(CC(=O)O)O3)cc1 (stereo unspecified) [[6-(4-Carbamimidoyl-benzoylamino)-chroman-2-yl]-acetic acid]	0.19
